Test results published in patent US20230121797A1, “A COMBINATION OF FLAVONOIDS AND SPHINGOSINE 1 PHOSPHATE LYASE INHIBITORS FOR THE TREATMENT OF LUNG INFLAMMATION” (AC BIOSCIENCE SA, priority 2020, published 2023).
Where two headings read alike, the source gives them in different places.

How the values were obtained:
circulating lymphocytes [1] = settings: human subjects, cited from earlier work
circulating lymphocytes [2] = settings: mice, cited from earlier work
Human neutrophils [3] = assay: cytochrome c reduction rate (superoxide anion production) by activated neutrophils; format: cell-based
Description: Human neutrophils (2×10^6/mL) were incubated in HBSS with TNF-α at 37° C. for 25 minutes. Cells were stimulated with FMLP or PMA in the presence of cytochrome c (1.2 mg/mL final), and the optical density of the supernatants was determined by spectrophotometry (550 nm). For both PMA or FLMP as PMN activators, the IC50 for DHQ inhibition is around 8 μM.
When activated by opsonized bacteria, zymozan, FMLP (Formyl-Methionyl-Leucyl-Phenylalanine) or PMA (phorbolmyristate acetate), neutrophils undergo an oxidative burst resulting in the production of superoxide anion and subsequent hydrogen peroxide. The oxidative burst is mainly mediated by the NADPH oxidase activation, enzyme responsible of the superoxide anion production. […] This effect may come from either a direct anion superoxide scavenging or from the inhibition of NADPH oxidase activation.

Human neutrophils [4] = assay: as above; format: cell-based; settings: Resting neutrophils
Human neutrophils [5] = assay: ROS production by activated neutrophils, luminol chemiluminescence; format: cell-based; settings: for inhibition of the ROS production: DHQ 1p M in the assay medium
Description: ROS production is measured using a chemiluminescence standard procedure: briefly, One hundred microliters of human neutrophils (4×10^6/mL) were primed with TNF-α at 37° C. for 25 minutes. 100 μL luminol (1 μM final concentration) and HRP (62.5 U/mL final concentration) in HBSS were added, and 150-μL aliquots were transferred to a prewarmed 96-well luminometer plate. Light emission was recorded by a Berthold MicroLumat Plus luminometer (Berthold Technologies, Hartfordshire, United Kingdom) (data output is in relative light units per second).
In order to further investigate the effect of DHQ on the oxidative burst of neutrophils, the measurement of the ROS production by chemoluminescence has been used which detect both surperoxide anion and hydrogen peroxide. […] This inhibitory effect can be considered as very efficient regarding the fact that the addition of 1p M in the assay medium results in around 80% inhibition of the ROS production in both experiments. The inhibition is not due to a ROS scavenging (as measured by cyt. C reduction) but due to the inhibition of NADPH oxidase.

PMN = assay: oxygen consumption of triggered PMN; format: cell-based; settings: triggered by PMA, FMLP and opsonized zymosan; data not shown
neutrophils = assay: activation of neutrophils stimulated by LPS or PMA; format: cell-based
Excerpt: Flavonoids are the largest group of naturally occurring polyphenolic compounds which have shown diverse biological activities depending of their chemical structure including anti-viral activities against a variety of viruses and potent immune-modulating and inflammatory activities. Among flavonoids, Quercetin, and its bioavailable derivatives such as isoquercetin, offer good perspectives to develop new therapeutics to treat cancer, viral infection and pathogenic inflammation (reviewed in Li et al, 2016). Flavonoids have potent anti-inflammatory activities.

[6] = test system: LPS-stimulated whole blood; settings: cited from earlier work

## C/C(=N\O)c1nc([C@@H](O)[C@H](O)[C@H](O)CO)c[nH]1 [Compound 2]
Circulating lymphocytes [1]; all dose groups
  tolerability: generally well tolerated
Circulating lymphocytes [1]; single ascending dose, highest administered dose of 180 mg
  decrease in peripheral lymphocytes: ~50%
Circulating lymphocytes [2]; single oral doses lower than 30-100 mg/kg
  lymphopenia: minimal to non-statistically significant effect
Circulating lymphocytes [2]; single oral doses of 30-100 mg/kg
  lymphopenia: 40-60%
Circulating lymphocytes [2]; single oral doses, 18 h after dosing
  depletion of circulating lymphocytes: up to 60%

## O=C1c2c(O)cc(O)cc2O[C@H](c2ccc(O)c(O)c2)[C@H]1O [DHQ, Dihydroquercetin]
Human neutrophils [3]; +FMLP, DHQ 1 μM
  cytochrome c reduction (anion superoxide production): 0.144 dDO/min
Human neutrophils [3]; +FMLP, DHQ 10 μM
  cytochrome c reduction (anion superoxide production): 0.105 dDO/min
Human neutrophils [3]; +FMLP, DHQ 100 μM
  cytochrome c reduction (anion superoxide production): 0.040 dDO/min
Human neutrophils [3]; +PMA, DHQ 1 μM
  cytochrome c reduction (anion superoxide production): 0.110 dDO/min
Human neutrophils [3]; +PMA, DHQ 10 μM
  cytochrome c reduction (anion superoxide production): 0.070 dDO/min
Human neutrophils [3]; +PMA, DHQ 100 μM
  cytochrome c reduction (anion superoxide production): 0.021 dDO/min
Human neutrophils [3]; Homo sapiens, Neutrophil, PMA as PMN activator, neutrophils incubated with TNF-α, read-out: IC50 for DHQ inhibition of cytochrome c reduction rate (superoxide anion production)
  IC50: ~8 µM
Human neutrophils [4]; DHQ 1 μM
  cytochrome c reduction (anion superoxide production): 0.000 dDO/min
Human neutrophils [4]; DHQ 10 μM
  cytochrome c reduction (anion superoxide production): 0.036 dDO/min
Human neutrophils [4]; DHQ 100 μM
  cytochrome c reduction (anion superoxide production): 0.086 dDO/min
Human neutrophils [5]; FMLP 10−6 Ml, DHQ 1, 10 or 100 μM, concentration of samples 2-4 not given
  T. half (rise): 1.55
Human neutrophils [5]; neutrophils activated by FMLP
  inhibition of the ROS production: around 80%
Human neutrophils [5]; neutrophils activated by PMA
  inhibition of the ROS production: around 80%
PMN
  oxygen consumption of PMN: strongly inhibits
neutrophils
  effect on the activation of neutrophils: strong inhibitory effect

## O=c1c(O)c(-c2ccc(O)c(O)c2)oc2cc(O)cc(O)c12 [quercetin]
[6]
  production of the major inflammatory cytokines TNFα, IL-6, IL-8 and IL-10: decreases the production
neutrophils
  effect on the activation of neutrophils: strong inhibitory effect
